Measurements published in patent US8338643B2, “Reagent for introduction of protein or gene” (Waseda University, priority 2006, dated 2012).

Key:
COS-1 cells = test: Gene expression level by luciferase assay, lipid/pDNA complex; assay type: cell-based; details: for Gene expression level: COS-1, DOPE/cationic lipid liposome, 200 ng DNA, 24 hours
Procedure: (§1) Use of a cationic lipid as a reagent for gene introduction was studied. Cationic liposomes consisting of a mixed membrane constituted by DOPE as a membrane-fusogenic lipid and a cationic lipid were prepared. 15 mg of the mixed lipid (the introduction amount of cationic lipid membrane in mixed membrane was adjusted to 20, 30, 40 or 50 mol %) was dispersed in 1.5 mL of the HEPES buffer solution (pH 7.4), and a liposome having the particle size of about 100 nm was prepared using a probe-type ultrasonic apparatus. The particle size was measured by the dynamic light scattering method. In the table, A represents a cationic lipid 2 and a cationic lipid 6; B represents a cationic lipid 5; C represents a cationic lipid 7; and D represents a cationic lipid 8.
In order to evaluate the gene transfer ability of the prepared cationic liposomes, the gene expression level was calculated based on luciferase assay using an luciferase-encoding plasmid vector (phRL-TK) (n=3).
The experimental protocol was as follows. The amount of transfected DNA was set to 200 ng in all the cases. In 100 μL of medium, COS-1 cells (1×10^4 cells/well) were seeded on a 96-well plate, and cultured in a CO2 incubator for 12 hours. A complex of lipid and plasmid DNA (lipid/pDNA complex) was allowed to stand for minutes, and diluted with the medium to be added to the cells. After that, culture in the CO2 incubator was carried out for 24 hours. The medium was removed, and washing with PBS(−) was carried out twice. Then, a dissolution buffer diluted 5-fold with MilliQ water was added to the medium (25 μl/well), and the cells were solubilized. The obtained solution was mildly stirred and allowed to stand at room temperature for minutes. To 20 μL of the cell solution, 100 μL of the coelenterazine solution was added, and the luminescence intensity was measured using a luminometer.

[1] = Particle size of liposomes by dynamic light scattering; assay type: physicochemical; details: DOPE mixed membrane, in nm
Procedure: (§2) The particle size and the ζ potential of the prepared cationic liposomes were measured. In the measurement of the particle size, the particle size in the case of the lipid concentration of 30 μM was measured by the dynamic light scattering method. In the measurement of the ζ potential, a liposome dispersion was diluted with a HEPES buffer solution (pH 7.4), and the ζ potential in the case of 30 μM was measured.
as §1

ζ potential of liposomes = assay type: physicochemical; details: for ζ potential: DOPE mixed membrane, in mV
Procedure: As evaluation of physical properties, the quantification of lipid was carried out by means of quantification of choline-type phospholipid, and quantification of encapsulated protein was carried out by means of HPLC (220 nm). In addition, the particle size and ζ potential were measured by the dynamic light scattering method (BECKMAN COULTER, N4 PLUS). […]
as §2
Next, the ζ potential of the prepared cationic liposomes was measured. A to D in the table was the same as Table 9.

Compound | Particle size ([1]; cationic lipid 20 mol %) | Particle size ([1]; cationic lipid 30 mol %) | Particle size ([1]; cationic lipid 40 mol %) | Particle size ([1]; cationic lipid 50 mol %) | ζ potential (ζ potential of liposomes; cationic lipid 20 mol %) | ζ potential (ζ potential of liposomes; cationic lipid 30 mol %) | ζ potential (ζ potential of liposomes; cationic lipid 40 mol %) | ζ potential (ζ potential of liposomes; cationic lipid 50 mol %) | ζ potential, comparison between lipids (ζ potential of liposomes; DOPE mixed membrane liposomes) | Gene expression level (COS-1 cells) | Gene expression efficiency at best conditions (COS-1 cells; DOPE/lipid 6=6/4 (mol ratio), cationic liposome/plasmid DNA 10/1 (w/w))
CCCCCCCCCCCCCCCCOC(=O)CCC(NC(=O)C(N)CCCCN)C(=O)OCCCCCCCCCCCCCCCC (stereo not drawn) [Compound 2, Lys-Glu2C16] |  |  |  |  |  |  |  |  |  | the gene expression level was low | 
CCCCCCCCCCCCCCCCOC(=O)CCC(NC(=O)CCCCCNC(=O)C(N)CCCCN)C(=O)OCCCCCCCCCCCCCCCC (stereo not drawn) [Compound 5, Lys-(CH2)5-Glu2C16] | 99 ± 45 | 95 ± 46 | 91 ± 43 | 100 ± 47 | 28 ± 3.4 | 37 ± 0.2 | 42 ± 3.0 | 41 ± 1.3 |  | the expression level was lower than that of the spacer-contained lipid 6 | 
Lys-(CH2)3-Glu2C16 [Compound 6] |  |  |  |  |  |  |  |  |  | a high expression efficiency was obtained | The highest expression efficiency was obtained

Second part, led by results:

Particle size ([1]; cationic lipid 20 mol %) | Particle size ([1]; cationic lipid 30 mol %) | Particle size ([1]; cationic lipid 40 mol %) | Particle size ([1]; cationic lipid 50 mol %) | ζ potential (ζ potential of liposomes; cationic lipid 20 mol %) | ζ potential (ζ potential of liposomes; cationic lipid 30 mol %) | ζ potential (ζ potential of liposomes; cationic lipid 40 mol %) | ζ potential (ζ potential of liposomes; cationic lipid 50 mol %) | ζ potential, comparison between lipids (ζ potential of liposomes; DOPE mixed membrane liposomes) | Compound | Gene expression level (COS-1 cells) | Gene expression efficiency at best conditions (COS-1 cells; DOPE/lipid 6=6/4 (mol ratio), cationic liposome/plasmid DNA 10/1 (w/w))
88 ± 42 | 98 ± 37 | 86 ± 40 | 100 ± 48 | 34 ± 42 | 40 ± 3.3 | 49 ± 3.3 | 37 ± 3.1 |  | Lys-(CH2)7-Glu2C16 [Compound 7] | the gene expression level was low | 
95 ± 36 | 113 ± 50 | 80 ± 39 | 95 ± 36 | 30 ± 1.2 | 37 ± 0.8 | 37 ± 3.1 | 44 ± 1.6 | slightly lower than that of the lipid 7 | Lys-(CH2)11-Glu2C16 [Compound 8] |  | 
